Reference: patent US20200017495A1, “NOVEL HETEROCYCLIC COMPOUNDS AND THEIR USE IN PREVENTING OR TREATING BACTERIAL INFECTIONS” (priority 2017, published 2020)
Like-named read-outs stand apart in the source and are kept apart here.

Columns and labels:
Format in all cases: cell-based
[1] = tested on: Proteus mirabilis (PMI) isolates; experiment: microbe, parasite or virus in culture
Experimental: (§1) Method 2: MIC of Compounds Alone and Combined with Antibacterials Against Bacterial Isolates
Compounds of the present invention were assessed against genotyped bacterial strains (Table 3, 4) alone or in combination with an antibacterial (Table 2). […] Log phase bacterial suspensions were adjusted to a final density of 5.10^5 CFU/mL in cation-adjusted Mueller-Hinton broth (ca-MHB; Becton-Dickinson and Company) and added to each well (98 μL). Microplates were incubated for 16-20 h at 35° C. in ambient air. The MIC of the compounds was defined as the lowest concentration of said compounds that prevented bacterial growth as read by visual inspection. The MIC of ATB at each compound concentration was defined as the lowest concentration of ATB that prevented bacterial growth as read by visual inspection.

[2] = tested on: Salmonella typhimurium (STY) isolates; experiment: MIC of compounds alone and combined with antibacterials, broth microdilution (CLSI); settings: for MIC ATB in combination: STY S3371
Experimental: as §1
(§2) Compounds of the present invention were assessed against genotyped bacterial strains (Table 3, 4) alone or in combination with an antibacterial (Table 2). […]. Briefly, compounds alone according to the invention were prepared in DMSO and spotted (2 μL each) on sterile polystyrene plates (Corning, 3788). Combinations of compounds and antibiotics dilutions were prepared in DMSO and spotted (1 μL each) on sterile polystyrene plates (Corning, 3788). Log phase bacterial suspensions were adjusted to a final density of 5.10^5 CFU/mL in cation-adjusted Mueller-Hinton broth (ca-MHB; Becton-Dickinson and Company) and added to each well (98 μL). Microplates were incubated for 16-20 h at 35° C. in ambient air. The MIC of the compounds was defined as the lowest concentration of said compounds that prevented bacterial growth as read by visual inspection. The MIC of ATB at each compound concentration was defined as the lowest concentration of ATB that prevented bacterial growth as read by visual inspection.

[3] = tested on: Providencia stuartii (PST) isolates; experiment: as above
Experimental: as §1, §2

[4] = strain PMI UFR82, genotype CMY-2
[5] = strain PMI UFR120, genotype TEM-1, SHV-11, CTX-M-14
[6] = strain PMI UFR121, genotype TEM-1, TEM-52
[7] = strain PMI UFR122, genotype TEM-1, CTX-M-15
[8] = strain PMI UFR123, genotype CTX-M-1
[9] = strain PMI UFR124, genotype CTX-M-2
[10] = strain PMI UFR125, genotype CTX-M-71
[11] = strain PMI UFR126, genotype TEM-2, PER-1
[12] = strain PMI UFR127, genotype VEB-1
[13] = strain PMI UFR129, genotype TEM-1, VEB-6
[14] = strain PMI UFR130, genotype CMY-2
[15] = strain PMI UFR237, genotype VEB-6
[16] = strain STY S3371, genotype OXA-1
[17] = strain PST UFR94, genotype CTX-M-14
[18] = strain PST UFR95, genotype TEM-24
[19] = strain PST UFR235, genotype VEB-1
[20] = Proteus mirabilis, strain PMI UFR82, genotype CMY-2, read-out: MIC
[21] = Proteus mirabilis, strain PMI UFR122, genotype TEM-1, CTX-M-15, read-out: MIC
[22] = Proteus mirabilis, strain PMI UFR130, genotype CMY-2, read-out: MIC
[23] = Salmonella enterica, TYPHIMURIUM
[24] = Providencia stuartii, strain PST UFR94, genotype CTX-M-14, read-out: MIC
[25] = Providencia stuartii, strain PST UFR95, genotype TEM-24, read-out: MIC
[26] = Providencia stuartii, strain PST UFR235, genotype VEB-1, read-out: MIC

## CC(C)(O/N=C(\C(=O)N[C@@H]1C(=O)N2C(C(=O)[O-])=C(C[n+]3ccccc3)CS[C@H]12)c1csc(N)n1)C(=O)O [CAZ, Ceftazidime]
[1]; PMI UFR82, AF2 @ 8 μg/mL
  MIC ATB in combination: <0.25 µg/mL
[1]; PMI UFR82, AF3 @ 8 μg/mL
  MIC ATB in combination: <0.25 µg/mL
[1]; PMI UFR126, AF2 @ 8 μg/mL
  MIC ATB in combination: <0.25 µg/mL
[1]; PMI UFR126, AF3 @ 8 μg/mL
  MIC ATB in combination: <0.25 µg/mL
[1]; PMI UFR127, AF2 @ 8 μg/mL
  MIC ATB in combination: <0.25 µg/mL
[1]; PMI UFR127, AF3 @ 8 μg/mL
  MIC ATB in combination: <0.25 µg/mL
[1]; PMI UFR128, AF2 @ 8 μg/mL
  MIC ATB in combination: <0.25 µg/mL
[1]; PMI UFR128, AF3 @ 8 μg/mL
  MIC ATB in combination: <0.25 µg/mL
[1]; PMI UFR129, AF2 @ 8 μg/mL
  MIC ATB in combination: <0.25 µg/mL
[1]; PMI UFR129, AF3 @ 8 μg/mL
  MIC ATB in combination: <0.25 µg/mL
[1]; PMI UFR130, AF2 @ 8 μg/mL
  MIC ATB in combination: <0.25 µg/mL
[1]; PMI UFR130, AF3 @ 8 μg/mL
  MIC ATB in combination: <0.25 µg/mL
[1]; PMI UFR133, AF2 @ 8 μg/mL
  MIC ATB in combination: <0.25 µg/mL
[1]; PMI UFR133, AF3 @ 8 μg/mL
  MIC ATB in combination: <0.25 µg/mL
[1]; PMI UFR237, AF2 @ 8 μg/mL
  MIC ATB in combination: <0.25 µg/mL
[1]; PMI UFR237, AF3 @ 8 μg/mL
  MIC ATB in combination: <0.25 µg/mL
[1]; [4]
  MIC: 4 µg/mL
[1]; [5]
  MIC: <=0.25 μg/mL
[1]; [6]
  MIC: 16 µg/mL
[1]; [7]
  MIC: 1 µg/mL
[1]; [8]
  MIC: 2 µg/mL
[1]; [9]
  MIC: 2 µg/mL
[1]; [10]
  MIC: 2 µg/mL
[1]; [11]
  MIC: >128 µg/mL
[1]; [12]
  MIC: >128 µg/mL
[1]; strain PMI UFR128, genotype VEB-1, OXA-10
  MIC: >128 µg/mL
[1]; [13]
  MIC: >128 µg/mL
[1]; [14]
  MIC: 4 µg/mL
[1]; strain PMI UFR131, genotype CMY-16, OXA-1, OXA-10, NDM-1, ArmA
  MIC: >128 µg/mL
[1]; strain PMI UFR131, with AF2 @ 8 μg/mL
  MIC ATB in combination: <0.25 µg/mL
[1]; strain PMI UFR131, with AF3 @ 8 μg/mL
  MIC ATB in combination: <0.25 µg/mL
[1]; strain PMI UFR132, genotype VEB-6, DHA-1, NDM-1, AphA6, AacA4
  MIC: >128 µg/mL
[1]; strain PMI UFR132, with AF2 @ 8 μg/mL
  MIC ATB in combination: <0.25 µg/mL
[1]; strain PMI UFR132, with AF3 @ 8 μg/mL
  MIC ATB in combination: <0.25 µg/mL
[1]; strain PMI UFR133, genotype OXA-23
  MIC: <=0.25 μg/mL
[1]; [15]
  MIC: >128 µg/mL
[2]; AF2 @ 8 μg/mL
  MIC ATB in combination: <0.25 µg/mL
[2]; AF3 @ 8 μg/mL
  MIC ATB in combination: <0.25 µg/mL
[2]; [16]
  MIC: 0.5 µg/mL
[3]; PST UFR94, AF2 @ 8 μg/mL
  MIC ATB in combination: <=0.25 μg/mL
[3]; PST UFR94, AF3 @ 8 μg/mL
  MIC ATB in combination: <=0.25 μg/mL
[3]; PST UFR95, AF2 @ 8 μg/mL
  MIC ATB in combination: <=0.25 μg/mL
[3]; PST UFR95, AF3 @ 8 μg/mL
  MIC ATB in combination: <=0.25 μg/mL
[3]; PST UFR120, AF2 @ 8 μg/mL
  MIC ATB in combination: <0.25 µg/mL
[3]; PST UFR120, AF3 @ 8 μg/mL
  MIC ATB in combination: <0.25 µg/mL
[3]; PST UFR121, AF2 @ 8 μg/mL
  MIC ATB in combination: <0.25 µg/mL
[3]; PST UFR121, AF3 @ 8 μg/mL
  MIC ATB in combination: <0.25 µg/mL
[3]; PST UFR122, AF2 @ 8 μg/mL
  MIC ATB in combination: <0.25 µg/mL
[3]; PST UFR122, AF3 @ 8 μg/mL
  MIC ATB in combination: <0.25 µg/mL
[3]; PST UFR123, AF2 @ 8 μg/mL
  MIC ATB in combination: <=0.25 μg/mL
[3]; PST UFR123, AF3 @ 8 μg/mL
  MIC ATB in combination: <0.25 µg/mL
[3]; PST UFR124, AF2 @ 8 μg/mL
  MIC ATB in combination: <=0.25 μg/mL
[3]; PST UFR124, AF3 @ 8 μg/mL
  MIC ATB in combination: <0.25 µg/mL
[3]; PST UFR125, AF2 @ 8 μg/mL
  MIC ATB in combination: <=0.25 μg/mL
[3]; PST UFR125, AF3 @ 8 μg/mL
  MIC ATB in combination: <0.25 µg/mL
[3]; PST UFR235, AF2 @ 8 μg/mL
  MIC ATB in combination: <=0.25 μg/mL
[3]; PST UFR235, AF3 @ 8 μg/mL
  MIC ATB in combination: <=0.25 μg/mL
[3]; [17]
  MIC: 1 µg/mL
[3]; [18]
  MIC: 64 µg/mL
[3]; strain PST UFR98, genotype TEM-1, CMY-6, OXA-1, NDM-1, RmtC
  MIC: >256 µg/mL
[3]; strain PST UFR98, with AF2 @ 8 μg/mL
  MIC ATB in combination: >128 µg/mL
[3]; strain PST UFR98, with AF3 @ 8 μg/mL
  MIC ATB in combination: <0.25 µg/mL
[3]; [19]
  MIC: >128 µg/mL

## C=CC1=C(C(=O)O)N2C(=O)[C@@H](NC(=O)/C(=N\O)c3csc(N)n3)[C@H]2SC1 [CDR, Cefdinir]
[1]; [20]
  MIC: 16 µg/mL
[1]; Proteus mirabilis, strain PMI UFR120, genotype TEM-1, SHV-11, CTX-M-14, read-out: MIC
  MIC: 64 µg/mL
[1]; Proteus mirabilis, strain PMI UFR121, genotype TEM-1, TEM-52
  MIC: > 256 µg/mL
[1]; [21]
  MIC: 16 µg/mL
[1]; Proteus mirabilis, strain PMI UFR123, genotype CTX-M-1
  MIC: > 256 µg/mL
[1]; Proteus mirabilis, strain PMI UFR124, genotype CTX-M-2
  MIC: > 256 µg/mL
[1]; Proteus mirabilis, strain PMI UFR125, genotype CTX-M-71, read-out: MIC
  MIC: 256 µg/mL
[1]; Proteus mirabilis, strain PMI UFR126, genotype TEM-2, PER-1
  MIC: > 256 µg/mL
[1]; Proteus mirabilis, strain PMI UFR127, genotype VEB-1
  MIC: > 256 µg/mL
[1]; Proteus mirabilis, strain PMI UFR129, genotype TEM-1, VEB-6
  MIC: > 256 µg/mL
[1]; [22]
  MIC: 16 µg/mL
[1]; Proteus mirabilis, strain PMI UFR237, genotype VEB-6
  MIC: > 256 µg/mL
[2]; [23]
  MIC: 0.5 µg/mL
[3]; [24]
  MIC: 64 µg/mL
[3]; [25]
  MIC: 32 µg/mL
[3]; [26]
  MIC: 256 µg/mL

## CO/N=C(\C(=O)N[C@@H]1C(=O)N2C(C(=O)O)=C(COC(N)=O)CS[C@H]12)c1ccco1 [FUR, Cefuroxime]
[1]; [4]
  MIC: 16 µg/mL
[1]; [5]
  MIC: >256 µg/mL
[1]; [6]
  MIC: >256 µg/mL
[1]; [7]
  MIC: >256 µg/mL
[1]; [8]
  MIC: >256 µg/mL
[1]; [9]
  MIC: >256 µg/mL
[1]; [10]
  MIC: >256 µg/mL
[1]; [11]
  MIC: >256 µg/mL
[1]; [12]
  MIC: >256 µg/mL
[1]; [13]
  MIC: >256 µg/mL
[1]; [14]
  MIC: 8 µg/mL
[1]; [15]
  MIC: >256 µg/mL
[2]; [16]
  MIC: 32 µg/mL
[3]; [17]
  MIC: >256 µg/mL
[3]; [18]
  MIC: 128 µg/mL
[3]; [19]
  MIC: 256 µg/mL

## COCC1=C(C(=O)O)N2C(=O)[C@@H](NC(=O)/C(=N\OC)c3csc(N)n3)[C@H]2SC1 [POD, Cefpodoxime]
[1]; [20]
  MIC: 64 µg/mL
[1]; [21]
  MIC: 64 µg/mL
[1]; Proteus mirabilis, strain PMI UFR127, genotype VEB-1, read-out: MIC
  MIC: 128 µg/mL
[1]; [22]
  MIC: 128 µg/mL
[2]; [23]
  MIC: 4 µg/mL
[3]; [24]
  MIC: 32 µg/mL
[3]; [25]
  MIC: 16 µg/mL
[3]; [26]
  MIC: 128 µg/mL
